In patent US8748389B2, “Treating cancer” (Theryte Limited, priority 2004, dated 2014):
Where a SMILES comes first, the peptide text is derived from it.

Key:
[1] = system: short term primary culture of human fibroblasts; assay: Experiment 2 further experiment, cells viewed under phase contrast microscopy; assay type: cell-based; conditions: for appearance of cells: 2.5 mM peptide, 2 days plus a further 7 days, FIG. 14; for cytotoxicity to cultured primary cultures of normal human cells: conclusion of Experiment 2
Protocol: In a further experiment, using a different batch of synthesized peptide, RT112 cells (a human bladder cancer cell line), HT29 cells (a human colon cancer cell line) and MGHU cells (a human bladder cancer cell line) were plated as described above. In parallel, a short term primary culture of human fibroblasts was plated in 48 well plates. After 24 h, the tissue culture medium was removed from each well and replaced with Hams F12 complete tissue culture medium (without foetal calf serum) supplemented with either 2.5 mM SEQ ID NO:1 or 2.5 mM SEQ ID NO:4. After culturing for 2 days, foetal calf serum was added to a concentration of 10%. The cells were then cultured for a further 7 days and viewed under phase contrast microscopy.
These peptides are not cytotoxic to cultured primary cultures of normal human cells.

[2] = system: non-cancerous fibroblasts; assay: Subsequent experiments testing cancerous and non-cancerous cell lines; assay type: cell-based
[3] = system: H441 cells; assay: % viability by visual observation under phase contrast microscopy, 48 well, Experiment 2 first experiment; assay type: cell-based, human
Protocol: (§1) In a first experiment, MGHU-1 cells (a human bladder cancer cell line), were plated in 48 well tissue culture dishes in 0.2 ml complete Hams F12 tissue culture medium supplemented with 10% foetal calf serum. SKMEL-2 cells (a human malignant melanoma cell line), HX34 cells (a human malignant melanoma cell line) and H441 cells (a human lung cancer cell line) were plated under identical conditions. The cells were incubated at 37° C. in an atmosphere of 5% CO2.
(§2) After 24 h, the culture medium was then removed from each well and replaced by Hams F12 complete tissue culture medium (without foetal calf serum). The culture medium added to each well was supplemented with a peptide having the sequence set out in SEQ ID NO:1, SEQ ID NO:2 or SEQ ID NO:3 at a concentration of either 0.5, 1.0 or 5.0 mM in such a way that each cell line was exposed to each peptide at each concentration.
(§3) The cells were then cultured for two days. Foetal calf serum was then added to a final concentration of 10%, and the cells were left for a further 5 days. The % viability of the cells in each well was calculated by visual observation under phase contrast microscopy. The effect of the peptides having the amino acid sequences set out in SEQ ID NO:1 and SEQ ID NO:3 on the viability of the SK MeI-2, MGHU-1, HX34 and H441 cell lines is shown in FIG. 12. […] Where the concentration of SEQ ID NO:1 was 1.0 mM, 100% of MGHU-1 cells were killed. The viability of the other cell lines was not affected.

[4] = system: HX34 cells; assay: as above; assay type: cell-based, human
Protocol: as §1, §2, §3

[5] = system: MGHU-1 cells; assay: as above; assay type: cell-based, human
Protocol: as §1, §2, §3

[6] = system: SKMEL-2 cells; assay: as above; assay type: cell-based, human
Protocol: as §1, §2, §3

[7] = system: Normal non-cancerous fibroblasts; assay: Experiments 3 and 4, 96 well plates, viability by phase contrast microscopy; assay type: cell-based
Protocol: (§4) Normal non-cancerous fibroblasts and cancer cells were exposed to the linear hexamer PRGPRP SEQ ID NO: 5 in 96 micro well plates using the same protocol as for SEQ. ID NO: 1 as previously described. The percent viability of the cells in each well was calculated by visual observation under phase contrast microscopy as previously described.
(§5) In order to define structure/function relationships different peptides were constructed SEQ ID NOS 5-16. Normal non-cancerous fibroblasts and cancer cells were exposed to 5 mM of these peptides in 96 well plates as previously described. The sequence of these peptides is listed below. Results were scored at 21 days.

[8] = system: cancer cells; assay: as above; assay type: cell-based; conditions: summary statement
Protocol: as §4, §5

[9] = system: normal non cancerous fibroblasts; assay: Experiment 6, cell growth by daily phase-contrast microscopy, 96 well plates; assay type: cell-based
Protocol: (§6) Cancer cells and non-cancerous fibroblasts were separately seeded at 10^2 to 10^4 cells in 200 μl of Hams F12 tissue culture medium plus 10% fetal calf serum in 96 well plates and exposed to varying concentrations of a peptide having an amino acid sequence set out in SEQ ID NO: 17 ranging from 5.0 μM to 100 μM. Cell growth was studied by daily phase-contrast microscopy over 25 days.

[10] = system: MGHU-1 bladder cancer cells; assay: as above; assay type: cell-based, human
Protocol: as §6

[11] = visual observation of cell density and viability
[12] = any concentration (0.5, 1.0 or 5.0 mM), day 7

CC(C)[C@H](NC(=O)[C@@H]1CCCN1C(=O)[C@H](CCCNC(=N)N)NC(=O)[C@@H]1CCCN1C(=O)CNC(=O)[C@H](CCCNC(=N)N)NC(=O)[C@@H]1CCCN1C(=O)[C@@H]1CCCN1C(=O)[C@@H](N)Cc1ccccc1)C(=O)N[C@@H](CCC(N)=O)C(=O)O [SEQ ID NO:1] (H-FPPRGPRPVQ-OH; N-terminus and C-terminus assumed)
appearance of cells [1]: appear to be healthy
cytotoxicity to cultured primary cultures of normal human cells [1]: not cytotoxic
cell killing ([2]; between days 20 and 25): specific killing of cancerous cells and not non-cancerous fibroblasts
cell killing ([2]; within the first seven days, cells then recovered): non specific killing

CC(C)[C@H](NC(=O)[C@@H]1CCCN1C(=O)[C@H](CCCNC(=N)N)NC(=O)[C@@H](NC(=O)CNC(=O)[C@H](CCCNC(=N)N)NC(=O)[C@@H]1CCCN1C(=O)[C@@H](NC(=O)[C@@H](N)Cc1ccccc1)[C@@H](C)O)[C@@H](C)O)C(=O)N[C@@H](CCC(N)=O)C(=O)O [SEQ ID NO:2] (H-FTPRGTRPVQ-OH; N-terminus and C-terminus assumed)
cytotoxicity [3, 11]: cytotoxic
cytotoxicity compared with SEQ ID NO:1 [3, 11]: less cytotoxic
cytotoxicity [4, 11]: cytotoxic
cytotoxicity compared with SEQ ID NO:1 [4, 11]: less cytotoxic
cytotoxicity [5, 11]: cytotoxic
cytotoxicity compared with SEQ ID NO:1 [5, 11]: less cytotoxic
cytotoxicity [6, 11]: cytotoxic
cytotoxicity compared with SEQ ID NO:1 [6, 11]: less cytotoxic
cytotoxicity to cultured primary cultures of normal human cells [1]: not cytotoxic

CC(C)[C@H](NC(=O)[C@H](CCCNC(=N)N)NC(=O)[C@H](Cc1ccccc1)NC(=O)[C@@H]1CCCN1C(=O)CNC(=O)[C@@H]1CCCN1)C(=O)N1CCC[C@H]1C(=O)N[C@@H](CCC(N)=O)C(=O)N1CCC[C@H]1C(=O)N[C@@H](CCCNC(=N)N)C(=O)O [SEQ ID NO:4, reference compound] (H-PGPFRVPQPR-OH)
appearance of cells [1]: appear to be healthy

N=C(N)NCCC[C@H](NC(=O)[C@@H]1CCCN1)C(=O)NCC(=O)N1CCC[C@H]1C(=O)N[C@@H](CCCNC(=N)N)C(=O)N1CCC[C@H]1C(=O)O [SEQ ID NO: 5, PRGPRP] (H-PRGPRP-OH)
state of fibroblasts ([7]; 21 days and beyond): remained healthy
growth of non-cancerous cells tested ([7]; summary statement): non-inhibitory
cytotoxicity to cancer cells tested [8]: cytotoxic

ATTEGTETVQ [SEQ ID NO:3, reference compound]
viability [3, 12]: did not affect viability
viability [4, 12]: did not affect viability
viability [5, 12]: did not affect viability
viability [6, 12]: did not affect viability

cyclo-[PRGPRPVPRGPRPVPRGPRPV] (cyclic) [SEQ ID NO: 17]
stimulation of fibroblasts ([9]; 10 days exposure, 10 μM, FIG. 18): marked non-cancerous fibroblast stimulation
stimulation of fibroblasts ([9]; between 5 and 10 days after exposure, 5.0 μM to 100 μM): Marked stimulation
cell morphology ([10]; after 20 days exposure, FIG. 19): marked loss of normal cell morphology
cell morphology of cancerous cells ([10]; no complete detachment of dead cells from the plastic surface): loss of clear cell morphology
